Measurements reported in patent publication US20070112068A1, “Nitrile compound and its use in pest control” (priority 2003, published 2007).

How the values were obtained:
Format in all cases: in vivo
Blattalla germanica = experiment: Experimental Example 3: treated filter paper with sucrose bait, German cockroach; conditions: 500 ppm, 0.7 ml on filter paper; two male imagoes; after 6 days
Protocol: A filter paper having a diameter of 5.5 cm was spread on the bottom of a polyethylene cup having a diameter of 5.5 cm and 0.7 ml of the experimental pesticidal solution was added dropwise onto the filter paper. As a bait 30 mg of sucrose was uniformly placed on the filter paper. Into the polyethylene cup, two male Blattalla germanica imagoes were released and the cup was sealed with a lid. After 6 days, the number of surviving Blattalla germanica was examined and the death rate of the pest was calculated.

Blattella germanica [1] = experiment: Experimental Example 14: topical application, Blattella germanica; conditions: 1 μl of 1% (w/v) acetone solution onto sternum of thorax of female imagoes; after 7 days
Protocol: 1% (w/v) solutions of the present compounds (4), (20), (22), (23), (24), (29), (30), (31), (35), (36), (37), (38), (46), (53), (54), (56), (57), (59), (61), (66), (67), (68), (69), (70), (71), (79), (81), (83), (84), (89), and (90) in acetone were prepared. Onto the sternum of the thorax of female imagoes of Blattella germanica, 1 μl of the acetone solution was added dropwise. The imagoes were transferred to a plastic cup having a diameter of about 9 cm and a height of about 4.5 cm and left together with feed and water at 25° C. After 7 days, the number of surviving Blattella germanica was examined and the death rate of the pest was calculated. 10 imagoes of Blattella germanica were put in a cup and three replicate experiments were performed.

Blattella germanica [2] = experiment: Experimental Example 15: treated filter paper in paper box, Blattella germanica; conditions: 0.1 ml of 2.5% (w/v) acetone solution on filter paper in paper box; after 7 days
Protocol: (§1) 2.5% (w/v) solutions of the present compounds (23), (24) and (31) in acetone were prepared. 0.1 ml of the solution was added dropwise onto a filter paper with 2 cm×2 cm and then air-dried. This filter paper was attached to the center of the inside bottom of a paper box having 10 cm (width)×2 cm (height)×7 cm (depth) with a two-sided tape. One hole of 5 mm in width and 2 cm in height was made through one side of this box. This box was placed in a plastic vat with 25 cm×20 cm×8 cm in height and therein 10 females and 10 males of Blattella germanica were released. The inside wall of the plastic vat used in this experiment was coated with talc for preventing the escape of cockroaches. The plastic vat contained feed and water and left at 25° C. After 7 days, Blattella germanica was observed and the death rate of the pest was calculated. This experiment was repeated two times.

Periplaneta fuliginosa = experiment: Experimental Example 16: treated filter paper in paper box, Periplaneta fuliginosa; conditions: 0.1 ml of 5% (w/v) acetone solution on filter paper in paper box; after 7 days
Protocol: as §1, with “5% (w/v)” for “2.5% (w/v)”, “of 2” for “of 5”, “therein 3” for “therein 10”, “and 3” for “and 10”, “of Periplaneta fuliginosa” for “of Blattella germanica”, “days, Periplaneta fuliginosa” for “days, Blattella germanica”

| Structure (SMILES) | death rate of the pest (Blattalla germanica) [%] | death rate of the pest (Blattella germanica [1]) [%] | death rate of the pest (Blattella germanica [2]) [%] | death rate of the pest (Periplaneta fuliginosa) [%] |
| --- | --- | --- | --- | --- |
| N#CC(C#N)(CCCCCl)CCC(F)(F)F [(3)] | 100 |  |  |  |
| N#CC(C#N)(CCC(F)(F)F)CC1CC1(Cl)Cl (stereo not shown) [(4)] | 100 | 100 |  |  |
| N#CC(C#N)(CCC(F)(F)F)CCC(F)(F)F [(5)] | 100 |  |  |  |
| CCCCCC(C#N)(C#N)CCC(F)(F)F [(9)] | 100 |  |  |  |
| CCCCCCC(C#N)(C#N)CCC(F)(F)F [(10)] | 100 |  |  |  |
| N#CC(C#N)(CCC(F)=C(F)F)CCC(F)(F)F [(17)] | 100 |  |  |  |
| N#CC(C#N)(CCC(F)(F)F)CC(F)(F)C(F)F [(20)] | 100 | 100 |  |  |
| N#CC(C#N)(CCC(F)(F)F)CC(F)(F)F [(21)] | 100 |  |  |  |
| N#CC(C#N)(CCC(F)(F)F)CC(F)(F)C(F)(F)F [(22)] | 100 | 100 |  |  |
| N#CC(C#N)(CCC(F)(F)F)CC(F)(F)C(F)C(F)(F)F (stereo not shown) [(23)] | 100 | 100 | 97.5 | 91.7 |
| N#CC(C#N)(CCC(F)(F)F)CC(F)(F)C(F)(F)C(F)(F)F [(24)] | 100 | 100 | 100 | 100 |
| N#CC(C#N)(CCF)CCC(F)(F)F [(25)] | 100 |  |  |  |
| C#CCC(C#N)(C#N)CCC(F)(F)F [(27)] | 100 |  |  |  |
| N#CC(C#N)(CCC(F)(F)F)CCC(F)(F)C(F)(F)F [(29)] | 100 | 100 |  |  |
| N#CC(C#N)(CCC(F)(F)F)CCC(F)(Cl)C(F)(F)Br (stereo not shown) [(30)] | 100 | 100 |  |  |
| N#CC(C#N)(CCC(F)(F)F)CC(F)(F)C(F)(F)C(F)(F)C(F)(F)C(F)(F)C(F)F [(32)] | 100 |  |  |  |
| N#CC(C#N)(CCC(F)(F)F)CCC(F)(F)C(F)(F)Br [(35)] | 100 | 100 |  |  |
| N#CC(C#N)(CCC(F)(F)F)CCC(F)(C(F)(F)F)C(F)(F)F [(36)] | 100 | 100 |  |  |
| N#CC(C#N)(CCC(F)(F)F)CCC(F)(F)C(F)(F)C(F)(F)F [(37)] | 100 | 100 |  |  |

| Structure (SMILES) | death rate of the pest (Blattalla germanica) [%] | death rate of the pest (Blattella germanica [1]) [%] | death rate of the pest (Blattella germanica [2]) [%] | death rate of the pest (Periplaneta fuliginosa) [%] |
| --- | --- | --- | --- | --- |
| N#CC(C#N)(CCC(F)(F)F)CCC(F)(F)C(F)(F)C(F)(F)C(F)(F)F [(38)] | 100 | 100 |  |  |
| N#CC(C#N)(CCC(F)(Cl)C(F)(F)Br)CC(F)(F)C(F)C(F)(F)F (stereo not shown) [(46)] | 100 | 100 |  |  |
| C=CCC(C#N)(C#N)CC(F)(F)C(F)(F)C(F)(F)C(F)F [(47)] | 100 |  |  |  |
| N#CC(C#N)(CCCC(F)(F)F)CCC(F)(F)F [(48)] | 100 |  |  |  |
| N#CC(C#N)(CC(F)(F)C(F)F)CC(F)(F)C(F)F [(50)] | 100 |  |  |  |
| N#CC(C#N)(CBr)CCC(F)(F)F [(52)] | 100 |  |  |  |
| N#CC(C#N)(CCC(F)(F)F)CCC(F)(Cl)C(F)(F)Cl (stereo not shown) [(54)] | 100 | 100 |  |  |
| N#CC(C#N)(CCCCCF)CCC(F)(F)F [(55)] | 100 |  |  |  |
| N#CC(C#N)(CCC(F)(C(F)(F)F)C(F)(F)F)CCC(F)(C(F)(F)F)C(F)(F)F [(56)] | 100 | 100 |  |  |
| N#CC(C#N)(CC(Br)C(F)(F)F)CC(F)(F)C(F)(F)C(F)(F)C(F)F (stereo not shown) [(57)] |  | 100 |  |  |
| N#CC(C#N)(CCC(F)(F)F)CC(Cl)C(F)(F)F (stereo not shown) [(58)] | 100 |  |  |  |
| CC(F)(F)CCC(C#N)(C#N)CC(F)(F)C(F)(F)C(F)(F)C(F)F [(59)] | 100 | 100 |  |  |
| N#CC(C#N)(CCCCC(F)F)CCC(F)(F)F [(60)] | 100 |  |  |  |
| N#CC(C#N)(CC(F)(F)C(F)F)CC(F)(F)C(F)(F)C(F)(F)C(F)F [(61)] | 100 | 100 |  |  |
| CC(F)(F)CCC(C#N)(C#N)CCC(F)(F)F [(64)] | 100 |  |  |  |
| N#CC(C#N)(CCCC(F)(F)F)CC(F)(F)C(F)(F)C(F)(F)C(F)F [(66)] | 100 | 100 |  |  |
| N#CC(C#N)(CCC(F)(Cl)C(F)(F)Cl)CC(F)(F)C(F)(F)C(F)(F)C(F)F (stereo not shown) [(67)] | 100 | 100 |  |  |
| N#CC(C#N)(CCC(F)(F)C(F)(F)F)CC(F)(F)C(F)(F)C(F)(F)C(F)F [(68)] | 100 | 100 |  |  |
| N#CC(C#N)(CC(Cl)C(F)(F)F)CC(F)(F)C(F)(F)C(F)(F)C(F)F (stereo not shown) [(69)] | 100 | 100 |  |  |

| Structure (SMILES) | death rate of the pest (Blattalla germanica) [%] | death rate of the pest (Blattella germanica [1]) [%] | death rate of the pest (Blattella germanica [2]) [%] | death rate of the pest (Periplaneta fuliginosa) [%] |
| --- | --- | --- | --- | --- |
| CCC(F)(F)CCC(C#N)(C#N)CCC(F)(F)F [(70)] |  | 100 |  |  |
| N#CC(C#N)(CCC(F)(F)C(F)(F)C(F)(F)F)CC(F)(F)C(F)(F)C(F)(F)C(F)F [(71)] | 100 | 100 |  |  |
| N#CC(C#N)(CC1CC1)CC(F)(F)C(F)(F)C(F)(F)C(F)F [(72)] | 100 |  |  |  |
| C=CCCC(C#N)(C#N)CC(F)(F)C(F)(F)C(F)(F)C(F)F [(73)] | 100 |  |  |  |
| N#CC(C#N)(CCCF)CC(F)(F)C(F)(F)C(F)(F)C(F)F [(74)] | 100 |  |  |  |
| N#CC(C#N)(CCC(F)=C(F)F)CC(F)(F)C(F)(F)C(F)(F)C(F)F [(75)] | 100 |  |  |  |
| CC(C)=CCC(C#N)(C#N)CC(F)(F)C(F)(F)C(F)(F)C(F)F [(78)] | 100 |  |  |  |
| N#CC(C#N)(CC(F)(F)C(F)(F)C(F)(F)F)CC(F)(F)C(F)(F)C(F)(F)C(F)F [(79)] | 100 | 100 |  |  |
| CCCCC(C#N)(C#N)CC(F)(F)C(F)(F)C(F)(F)C(F)F [(80)] | 100 |  |  |  |
| N#CC(C#N)(CC(F)(F)C(F)C(F)(F)F)CC(F)(F)C(F)(F)C(F)(F)C(F)F (stereo not shown) [(81)] | 100 | 100 |  |  |
| CCCC(C#N)(C#N)CC(F)(F)C(F)(F)C(F)(F)C(F)F [(82)] | 100 |  |  |  |
| N#CC(C#N)(CCC(F)(F)F)CC1CCC(F)(F)CC1 [(83)] | 100 | 100 |  |  |
| N#CC(C#N)(CCC1CCC(F)(F)C1)CCC(F)(F)F (stereo not shown) [(84)] |  | 100 |  |  |
| N#CC(C#N)(CCC(F)(F)F)C[C@H]1CCC[C@@H](C(F)F)C1 [(87)] | 100 |  |  |  |
| N#CC(C#N)(CCC(F)(F)F)C[C@H]1CCC[C@@H](CF)C1 [(88)] | 100 |  |  |  |
| N#CC(C#N)(CCCC(F)(F)C(F)(F)F)CCC(F)(F)F [(89)] | 100 | 100 |  |  |
| CC(F)(F)CCCC(C#N)(C#N)CCC(F)(F)F [(90)] |  | 100 |  |  |
| N#CC(C#N)(CC(F)(F)C(F)(F)F)CC(F)(F)C(F)(F)F [(93)] | 100 |  |  |  |
